Series [1] can be described thus: Oral bioavailability and pharmacokinetics in mice (plasma, mass spectroscopy). The settings on record: for Bioavailability F (AUC(0-inf.)): 30 mg/kg po vs iv; for AUC(0-inf.) (calc.) / AUC(0-t) (obs.) / Cmax (obs.) / Tmax (obs.) / Vd / t½α / t½β: WFI.
Method: Mice received 30 mg/kg of 1 or 6 intravenously or orally. For each time point blood of 3 mice has been collected, plasma prepared and the concentration of 1 or 6 has been determined by mass spectroscopy. […] Bioavailability and the area under the curve (Auc(0-t) [μg h/L]=AUC) have been determined.
For series [2], the system named is human cervix carcinoma xenograft KB-3-1. In words: Antitumor activity in human cervix carcinoma xenograft model (KB-3-1) in vivo. More on the design: species or system nude mice. Conditions: for Tumor inhibition / Tumor weight: day 30; for Tumor weight: median. Here is the method:
Tumor bearing mice were randomized on day 8 after KB-3-1 tumor cell inoculation and were distributed to treatment groups of n=7 animals per group. Treatment was started on day 8. The animals were treated orally once daily for 5 consecutive days with 1 or 6. Dosages included 50 and 25% of the Maximum Tolerable Doses (MTD's). Control animals received the vehicle (water). On day 30, the primary tumors were explanted and the tumor weights were determined.
A general note: In xenograft studies the graft and the host belong to different species.

Where [3] appears, read: 25% MTD, 100 mg/kg/day orally once daily for 5 days.
Where [4] appears, read: 50% MTD, 200 mg/kg/day orally once daily for 5 days.
The mark [5] stands for this setting: 25% MTD, 100 mg/kg/day orally once daily for 5 days from day 8.
The mark [6] stands for this setting: 50% MTD, 200 mg/kg/day orally once daily for 5 days from day 8.
[7] abbreviates: mice, 30 mg/kg iv, experiment P06.0068.
Where [8] appears, read: mice, 30 mg/kg po, experiment P06.0068.
Where [9] appears, read: mice, 30 mg/kg po, experiment P06.0069.
The mark [10] stands for this setting: mice, 30 mg/kg iv, experiment P06.0069.

Consider three compounds from patent US20100249055A1, “CLOFARABINE PHOSPHOLIPID DERIVATIVES” (HEIDELBERG PHARMA AG, priority 2007, published 2010).

In general, AUC refers to the area under the concentration-time curve, a measure of exposure. Higher therefore signals high exposure. For the compound `CCCCCCCCCCCCOCC(COP(=O)(O)OC[C@H]1O[C@@H](n2cnc3c(N)nc(Cl)nc32)C(F)[C@H]1O)OCCCCCCCCCC` (stereo partly drawn) [Compound 1, [2-Chloro-9-(2′-deoxy-2′-fluoro-β-D-arabinofuranosyl)adenine]-5′-phosphoric acid-(2-decyloxy-3-dodecyloxy)propyl ester], the “Bioavailability F (AUC(0-inf.))” value in series [1] (mice, experiment P06.0069) turned out to be 28.5%. Also, the AUC in series [1] (mouse, plasma, po, 30 mg/kg) turned out to be 88.9 µg·h/mL. Moreover, in series [2] (18 days after termination of treatment (day 30)), the “Tumor size versus control animals” value was “significantly (p<0.01) smaller tumors than control animals”. Moreover, the results for the Tumor inhibition in series [2] (setting [3]) and in series [2] (setting [4]) were 43% and 93%, respectively. The Tumor weight came out at 1.60 g in series [2] (setting [5]) and 0.19 g in series [2] (setting [6]).

Regarding `CCCCCCCCCCCCSCC(COP(=O)(O)OC[C@H]1O[C@@H](n2cnc3c(N)nc(Cl)nc32)[C@@H](F)[C@@H]1O)OCCCCCCCCCC` (stereo partly shown) [Compound 6], in series [1] (setting [7]), the “AUC(0-inf.) (calc.)” value was 841.7 µg·h/mL, the “AUC(0-t) (obs.)” value came out at 823.424 µg·h/mL, the “Cmax (obs.)” value was 673387 ng/mL and the “Tmax (obs.)” value is 0.0 h. In series [1] (setting [7]), this compound yielded a Vd of 0.26 L/kg, a t½α of 0.4 h and a t½β of 5.1 h. Also, the AUC after oral application in series [1] (mice, 30 mg/kg orally, AUC(0-t)) is 213 µg·h/mL. Moreover, the “Bioavailability F (AUC(0-inf.))” value in series [1] (mice, experiment P06.0068) came to 28.5%. In addition, in series [1] (setting [8]), the “AUC(0-inf.) (calc.)” value was 239.878 µg·h/mL, the “AUC(0-t) (obs.)” value worked out at 236.496 µg·h/mL, the “Cmax (obs.)” value was 19517 ng/mL and the “Tmax (obs.)” value was 4.0 h. In series [1] (setting [8]), this compound had a Vd of 1.30 L/kg, a t½α of 0.5 h and a t½β of 7.2 h. Also, in series [1] (setting [9]), the “AUC(0-inf.) (calc.)” value was 225.914 µg·h/mL, the “AUC(0-t) (obs.)” value was determined as 212.685 µg·h/mL, the “Cmax (obs.)” value was 23571 ng/mL and the “Tmax (obs.)” value came to 3.0 h. Moreover, in series [1] (setting [9]), the Vd turned out to be 1.10 L/kg, the t½α came out at 0.9 h and the t½β stood at 5.7 h. Besides, in series [2] (setting [3]), the Tumor inhibition was found to be 31%. The compound further showed a Tumor inhibition in series [2] (setting [4]) of 74%. This compound also returned a Tumor weight in series [2] (setting [5]) of 1.91 g. Further, the Tumor weight in series [2] (setting [6]) is on record as 0.73 g.

Consider “[2-Chloro-9-(2′-deoxy-2′-fluoro-β-D-arabinofuranosyl)adenine]-5′-phosphoric acid-(2-decyloxy-3-dodecyloxy)propyl ester [Compound 1]”, for which, in series [1] (setting [10]), the “AUC(0-inf.) (calc.)” value was 320.025 µg·h/mL, the “AUC(0-t) (obs.)” value came to 315.695 µg·h/mL, the “Cmax (obs.)” value was 486156 ng/mL and the “Tmax (obs.)” value is given as 0.02 h. Also, in series [1] (mice, experiment P06.0069), the “Bioavailability F (AUC(0-inf.))” value is given as 28.5%. In addition, in series [1] (setting [9]), the “AUC(0-inf.) (calc.)” value is 91.31 µg·h/mL, the “AUC(0-t) (obs.)” value stood at 88.927 µg·h/mL, the “Cmax (obs.)” value worked out at 13256 ng/mL and the “Tmax (obs.)” value came to 2.0 h.
